Laboratory results reported in publication PMC11181328 (Journal of Medicinal Chemistry, 2024).
Structures can show the parent of a compound that is named as a salt. Where two headings read alike, the source gives them in different places.

Legend:
male Swiss Webster mice = assay: Warm-water tail immersion assay, agonism (single dose screen and potency); type: in vivo, mouse; conditions: for ED50: Mus musculus, sc, read-out: potency ED50 [95% CI] mg/kg, s.c., 20 min prior to tail withdrawal latency measurement, male Swiss Webster mice; for percent MPE / antinociception compared to the vehicle group: single dose 10 mg/kg s.c.; for percent MPE: withdrawal latency 20 min after administration; for antinociception compared to the vehicle group: 20 min
DOR [1] = biological target: T1, DOR (Homo sapiens, UniProt P41143); assay: Competitive radioligand binding assay, DOR
T1 construct: expressed in transfected cells; membrane homogenate

DOR [2] = biological target: T1, DOR; assay: [35S]-GTPγS functional assay, DOR; type: biochemical; conditions: for EC50: hDOR-CHO membranes; for Emax: percent of SNC80 full agonist control
KOR [3] = biological target: T2, KOR (Mus musculus, UniProt P33534); assay: Competitive radioligand binding assay, KOR; conditions: for radioligand binding affinity (Ki, nM) KOR: [3H]diprenorphine, mKOR-CHO membranes; for selectivity ratio δ/κ / selectivity ratio μ/κ: ratio of Ki values
T2 construct: expressed in transfected cells; membrane homogenate

MOR [4] = biological target: T3, MOR (Mus musculus, UniProt P42866); assay: Competitive radioligand binding assay, MOR; design: expressed in transfected cells; membrane homogenate
MOR [5] = biological target: T3, MOR; assay: [35S]-GTPγS functional assay, MOR; type: biochemical; design: expressed in transfected cells; membrane homogenate; conditions: for Emax: read-out: [35S]-GTPγS functional activity MOR Emax (%)
KOR [6] = biological target: T2, KOR; assay: [35S]-GTPγS functional assay, KOR; type: biochemical; conditions: for EC50: mKOR-CHO membranes; for Emax: percent of U50,488 full agonist control
[7] = [3H]naloxone, mMOR-CHO membranes

SMILES	Ki (DOR [1]) [nM]	EC50 (DOR [2]) [nM]	Emax (DOR [2]) [%]	Ki (KOR [3]) [nM]	Ki (MOR [4]) [nM]	EC50 (MOR [5]; mMOR-CHO membranes) [nM]	Emax (MOR [5]) [%]	antinociception compared to the vehicle group (male Swiss Webster mice)	selectivity ratio δ/κ (KOR [3])	EC50 (KOR [6]) [nM]	Emax (KOR [6]) [%]	selectivity ratio μ/κ (KOR [3])	further results
CN(C(=O)CCc1ccoc1)[C@H]1CC[C@@]2(O)[C@H]3Cc4cccc5c4[C@@]2(CCN3CC2CC2)[C@H]1O5 [Compound 1, 17-Cyclopropylmethyl-4,5α-epoxy-6α-[3′-(furan-3″-yl)N-methylpropanamido]-14β-hydroxymorphinan Hydrochloride]	48.6 ± 6.51	137 ± 26.5	56.4 ± 2.6	0.48 ± 0.07	7.74 ± 0.69	20 ± 3.49	11.5 ± 0.81						ED50 (male Swiss Webster mice): 0.553 mg/kg; percent MPE (male Swiss Webster mice): ≥ 80%; radioligand binding affinity (Ki, nM) KOR (KOR [3]): subnanomolar
O=C(CCc1ccoc1)N[C@H]1CC[C@@]2(O)[C@H]3Cc4cccc5c4[C@@]2(CCN3CC2CC2)[C@H]1O5 [Compound 2, 17-Cyclopropylmethyl-4,5α-epoxy-6α-[3′-(furan-3″-yl)propanamido]-14β-hydroxymorphinan Hydrochloride]	154 ± 26.5	429 ± 62.6	> 80	161 ± 11.8	54.5 ± 2.01	200 ± 63.1	8.8 ± 0.55	lack of significant antinociceptive effect	1	1010 ± 176	66.1 ± 5.2		
CN(C(=O)CCc1ccoc1)[C@@H]1CC[C@@]2(O)[C@H]3Cc4cccc5c4[C@@]2(CCN3CC2CC2)[C@H]1O5 [Compound 3, 17-Cyclopropylmethyl-4,5α-epoxy-6β-[3′-(furan-3″-yl)-N-methylpropanamido]-14β-hydroxymorphinan Hydrochloride]	891 ± 52.5	5780 ± 829	66.9 ± 3.52	34.5 ± 6.27	43.8 ± 2.85	224 ± 44.9	13.8 ± 1.86	lack of significant antinociceptive effect	26	246 ± 29.2	86.42 ± 0.63	1	
O=C(CCc1ccoc1)N[C@@H]1CC[C@@]2(O)[C@H]3Cc4cccc5c4[C@@]2(CCN3CC2CC2)[C@H]1O5 [Compound 4, 17-Cyclopropylmethyl-4,5α-epoxy-6β-[3′-(furan-3″-yl)propanamido]-14β-hydroxymorphinan Hydrochloride]	749 ± 59.1	1690 ± 116	55.8 ± 2.39	8.37 ± 1.44	17.3 ± 1.68	185 ± 38	14.2 ± 1.27		90	117 ± 21.2	81.4 ± 7.72	2	
CN(C(=O)CCc1ccoc1)[C@H]1CC[C@@]2(O)[C@H]3Cc4ccc(O)c5c4[C@@]2(CCN3CC2CC2)[C@H]1O5 [Compound 5, 17-Cyclopropylmethyl-3,14β-dihydroxy-4,5α-epoxy-6α-[3′-(furan-3″-yl)-N-methylpropanamido]morphinan Hydrochloride]	0.59 ± 0.06	0.75 ± 0.09	68.3 ± 1	0.13 ± 0.02	0.18 ± 0.02	0.37 ± 0.05	17.9 ± 1.81						radioligand binding affinity (Ki, nM) DOR (DOR [1]; [3H]diprenorphine, hDOR-CHO membranes): subnanomolar; radioligand binding affinity (Ki, nM) KOR (KOR [3]): subnanomolar; radioligand binding affinity (Ki, nM) MOR (MOR [4]; [7]): subnanomolar
CN(C(=O)CCc1ccoc1)[C@@H]1CC[C@@]2(O)[C@H]3Cc4ccc(O)c5c4[C@@]2(CCN3CC2CC2)[C@H]1O5 [Compound 7, 17-Cyclopropylmethyl-3,14β-dihydroxy-4,5α-epoxy-6β-[3′-(furan-3″-yl)-N-methylpropanamido]morphinan Hydrochloride]	8.42 ± 0.9	19.2 ± 1.62	51.4 ± 2.78	0.28 ± 0.05	0.53 ± 0.06	4.3 ± 0.47	12.2 ± 0.92			0.99 ± 0.04	102 ± 1.05		ED50 (male Swiss Webster mice): 0.443 mg/kg; percent MPE (male Swiss Webster mice): ≥ 80%; radioligand binding affinity (Ki, nM) KOR (KOR [3]): subnanomolar; radioligand binding affinity (Ki, nM) MOR (MOR [4]; [7]): subnanomolar
CN(C(=O)CCc1ccco1)[C@H]1CC[C@@]2(O)[C@H]3Cc4cccc5c4[C@@]2(CCN3CC2CC2)[C@H]1O5 [Compound 9, 17-Cyclopropylmethyl-4,5α-epoxy-6α-[3′-(furan-2″-yl)N-methylpropanamido]-14β-hydroxymorphinan Hydrochloride]	46.8 ± 8.37	212 ± 33.8	70.5 ± 5.9	1 ± 0.18	14.1 ± 1.4	76.5 ± 48.5	11.2 ± 1.55	lack of significant antinociceptive effect	47	18.4 ± 1.05	91.4 ± 1.46	14	
O=C(CCc1ccco1)N[C@H]1CC[C@@]2(O)[C@H]3Cc4cccc5c4[C@@]2(CCN3CC2CC2)[C@H]1O5 [Compound 10, 17-Cyclopropylmethyl-4,5α-epoxy-6α-[3′-(furan-2″-yl)propanamido]-14β-hydroxymorphinan Hydrochloride]	90.2 ± 13	348 ± 40.2	> 80	73.8 ± 12.2	53.1 ± 6.06	278 ± 107	10.2 ± 1.33	lack of significant antinociceptive effect	1	442 ± 29.9	86.5 ± 1.55	1	Selectivity Ratio DOR/KOR (KOR [3]; supplement csv): 1; Selectivity Ratio MOR/KOR (KOR [3]; supplement csv): 1
CN(C(=O)CCc1ccco1)[C@@H]1CC[C@@]2(O)[C@H]3Cc4cccc5c4[C@@]2(CCN3CC2CC2)[C@H]1O5 [Compound 11, 17-Cyclopropylmethyl-4,5α-epoxy-6β-[3′-(furan-2″-yl)-N-methylpropanamido]-14β-hydroxymorphinan Hydrochloride]	532 ± 92.5	1100 ± 108	61.7 ± 4.27	50.4 ± 6.84	93.6 ± 10.4	5620 ± 2130	22.9 ± 2.39	lack of significant antinociceptive effect	11	146 ± 27.1	109 ± 5.9	2	
Cl.O=C(CCc1ccco1)N[C@H]1CC[C@@]2(O)[C@H]3Cc4ccc(O)c5c4[C@@]2(CCN3CC2CC2)[C@H]1O5 [Compound 14, 17-Cyclopropylmethyl-3,14β-dihydroxy-4,5α-epoxy-6α-[3′-(furan-2″-yl)propanamido]morphinan Hydrochloride]		3.55 ± 0.77					21.8 ± 2.76	lack of significant antinociceptive effect		5.22 ± 0.79			radioligand binding affinity (Ki, nM) MOR (MOR [4]; [7]): subnanomolar; Ki (MOR [4]; [3H]naloxone, mMOR-CHO membranes, read-out: radioligand binding affinity (Ki, nM) MOR): 0.72 ± 0.1 nM; EC50 (MOR [5]; supplement csv): 2.77 ± 0.73 nM
CN(C(=O)/C=C/c1ccco1)[C@@H]1CC[C@@]2(O)[C@H]3Cc4cccc5c4[C@@]2(CCN3CC2CC2)[C@H]1O5 [Compound 19, 17-Cyclopropylmethyl-4,5α-epoxy-6β-[(2E)-3′-(furan-2″-yl)-N-methylprop-2-enamido]-14β-hydroxymorphinan Hydrochloride]	2260 ± 338	5980 ± 581	> 80	4.11 ± 0.57	215 ± 26.5	888 ± 363	11 ± 0.68		551	53.9 ± 3.33	96.9 ± 8.02	52	
